Test results published in patent US6319929A, “Suksdorfin analogs, compositions thereof, and methods for making and using thereof” (priority 1998, dated 2001).
Read-outs that look alike come from different tables or passages of the source.

How the values were obtained:
[1] = system: chronically HIV-1 infected U1 cells; assay: Virus expression from chronically HIV-1 infected monocytic cell line U1 (p24 antigen ELISA); format: cell-based; settings: for effect on virus expression of PMA-stimulated U1 cells (in words): with PMA; for induction of virus expression from U1 cells (in words): without PMA
Experimental: (§1) Effects of suksdorfin analogs on Chronically HIV-1 infected cells. The experimental design is as follows: The phorbol ester, PMA (10^-8 M) and various concentrations of suksdorfin were either added or not added to both the chronically HIV-1 infected T cell line (ACH-2) and to the chronically HIV-1 infected monocytic cell line (U1). Cell-free supernatant was collected 72 hours post culture for p24 antigen ELISA.
Compound 16 was also assayed on ACH-2 (chronically HIV-1 infected T cell line). U1 cells are also chronically HIV-1 infected cells but they are from the monocytic cell line, U937. The data presented in Table 8 indicates the following points:
(§2) Chronically HIV-1 infected cell lines. HIV-1 chronically infected T cell line, ACH-2^12, and HIV-1 chronically infected promonocytic cell line, U1 13, were continuously maintained in RPMI 1640 with 10% fetal calf serum (FCS). For experiments, the cell lines were only used in the […] of growth. Cells (0.5×10^6 cells/well) and either various concentrations of suksdorfin or medium alone were added to 24-well plates in the presence or absence of PMA (10^-8 M). After 72 hours at 37° C. and 5% CO2, an aliquot of the cell-free supernatants were collected and analyzed for p24 antigen by ELISA (see below for details of p24 antigen ELISA).

[2] = system: HIV-1 replication in H9 cells; assay: HIV-1 replication inhibition in acutely infected H9 lymphocytes (p24 antigen ELISA); format: cell-based, HIV-1 (IIIB strain); settings: for anti-HIV activity in H9 cells (in words): acutely infected H9 cells
Method in brief: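 H9 T cells exposed to HIV-1 IIIB (0.01-0.1 TCID50/cell) for 1 h at 37° C, washed, then grown with compound for 3-4 days at 37° C. Toxicity taken from cell counts of uninfected cultures and virus from p24 ELISA of supernatants. EC50 and IC50 were read graphically from concentration versus percent inhibition plots.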

[3] = system: chronically HIV-1 infected ACH-2 cells; assay: Virus expression from chronically HIV-1 infected T cell line ACH-2 (p24 antigen ELISA); format: cell-based; settings: for effect on virus expression of PMA-stimulated ACH-2 cells (in words): with PMA; for induction of virus expression from ACH-2 cells (in words): without PMA
Experimental: as §1
Results (Table 11) from adding compound 16 to the chronically HIV-infected T cell line, ACH-2, according to methods in above examples. ACH-2 are a chronically HIV-1 infected T cell line. It was derived from A3.01 cells which is a subclone of the CEM cell line. The data below indicates the following points:
as §2

[4] = system: HIV-1 replication in U937 cells; assay: HIV-1 replication in acutely infected promonocytic U937 cells; format: cell-based, HIV-1 (IIIB); settings: for EC50: Human immunodeficiency virus 1, U-937
Experimental: Suksdorfin was also tested on an acute HIV-1 infection of the promonocytic cell line, U937. This was done again to determine drug specificity but this time on a monocytic cell line.
As part of efforts to biologically characterize 16 the monocytic cell line, U937 and peripheral blood mononuclear cells (PBMCs) were separately infected with HIV-1 and then had various concentrations of the analog added for 4 days of culture.
HIV Growth Inhibition Assay: The T cell line, H9, and the promonocytic cell line, U937, were maintained separately in continuous culture with complete medium (RPMI 1640 and […] fetal calf serum (FCS) at 5% CO2 and 37° C. Cell lines were used in experiments only when in log phase of growth; whereas, uninfected peripheral blood mononuclear cells (PBMCs) were first stimulated with PHA (1 μg/ml) for 3 days. All cell targets were incubated with HIV-1 (IIIB isolate, TCID50 10 ^4 IU/mi, at a multiplicity of infection of 0.1-0.01 IU/cell) for 1 hour at 37° C. and 5% CO2. The cell lines and PBMCs were washed thoroughly to remove unabsorbed virions and resuspended at 4×10^5 cells/ml in complete medium or complete medium with 10% v/v interleukin […] IL-2, respectively. Aliquots ( ml) were placed in wells of 24-well culture plates containing an equal volume of test compound (diluted in the appropriate culture medium). After incubation for 4 days at 37° C., cell density of uninfected cultures was determined by counting cells in a Coulter counter to assess toxicity of the test compound. A p24 antigen ELISA assay was used to determine the level of virus released in the medium of the HIV-infected cultures. The p24 antigen assay uses a HIV-1 anti-p24 specific monoclonal antibody as the capture antibody coated-on 96-well plates. Following a sample incubation period, rabbit serum containing antibodies for HIV-1 p24 is used to tag any p24 "captured" onto the microtiter well surface. Peroxidase conjugated goat anti-rabbit serum is then used to tag HIV-1 p24 specific rabbit antibodies which have complexed with captured p24. […] The cut-off for the p24 ELISA assay is 12. pg/ml. P24 in the culture medium was quantitated against a standard curve containing known amounts of p24. The effective (EC50) and inhibitory (IC50) concentrations (for anti-HIV activity and cytotoxicity, respectively) were determined graphically. Both the EC50 and IC50 values were calculated by plotting drug concentration versus percent inhibition, and then identifying a 50% inhibition value from the graph.

Question: Which results are given for `CC(=O)O[C@@H]1[C@H](OC(=O)CC(C)C)c2c(ccc3ccc(=O)oc23)OC1(C)C` [Suksdorfin, suksdorfin]?
Answer: P24 ([1]; U1, +PMA, 0.16 μg/ml): 6,611 pg/ml; P24 ([1]; U1, +PMA, 0.8 μg/ml): 7,360 pg/ml; P24 ([1]; U1, +PMA, 4 μg/ml): 9,728 pg/ml; P24 ([1]; U1, +PMA, 20 μg/ml): 5,096 pg/ml; P24 ([1]; U1, -PMA, 0.16 μg/ml): 0 pg/mL; P24 ([1]; U1, -PMA, 0.8 μg/ml): 0 pg/mL; P24 ([1]; U1, -PMA, 4 μg/ml): 0 pg/mL; P24 ([1]; U1, -PMA, 20 μg/ml): 0 pg/mL; effect on virus expression of PMA-stimulated U1 cells (in words) [1]: no significant alteration in the level of virus expression; effect on virus expression of PMA-stimulated U1 cells (in words) ([1]; listed as 1): no alteration in the level of virus expression; induction of virus expression from U1 cells (in words) [1]: The answer is no; induction of virus expression from U1 cells (in words) ([1]; listed as 1): no increase in the induction of virus expression; EC50 ([2]; Human immunodeficiency virus 1, H9, Table 17, acutely infected H9 lymphocytes, read-out: EC50): 1.3 µM; EC50 ([2]; Human immunodeficiency virus 1, H9, acutely infected H9 cells, concentration which inhibits viral replication by 50%, Inactive = No suppression of HIV-1 replication in H9 cells, read-out: EC50): 1.3 µM; EC50 ([2]; Human immunodeficiency virus 1, H9, earlier value, read-out: EC50 (value before increase)): 0.5 to 0.8 µg/mL; IC50 ([2]; Human immunodeficiency virus 1, Table 14, concentration which inhibits viral replication by 50%, Inactive = No suppression of HIV-1 replication in H9 cells, read-out: IC50 (μM)^b): 1.3 µM; Therapeutic Index ([2]; IC50 for cell growth inhibition divided by EC50 for HIV inhibition, H9): > 40; Therapeutic Index ([2]; Table 14): > 40.0; Therapeutic Index ([2]; Table 17, H9): > 40; anti-HIV activity in H9 cells (in words) [2]: suppressed virus replication; anti-HIV activity in H9 cells (in words) ([2]; listed as 1): potent anti-HIV-1 activity at nontoxic concentrations; P24 ([3]; ACH-2, +PMA, 0.16 μg/ml): 50,775 pg/ml; P24 ([3]; ACH-2, +PMA, 0.8 μg/ml): 55,910 pg/ml; P24 ([3]; ACH-2, +PMA, 4 μg/ml): 61,235 pg/ml; P24 ([3]; ACH-2, +PMA, 20 μg/ml): 49,914 pg/ml; P24 ([3]; ACH-2, -PMA, 0.16 μg/ml): 3,688 pg/ml; P24 ([3]; ACH-2, -PMA, 0.8 μg/ml): 3,821 pg/ml; P24 ([3]; ACH-2, -PMA, 4 μg/ml): 4,723 pg/ml; P24 ([3]; ACH-2, -PMA, 20 μg/ml): 4,541 pg/ml; effect on virus expression of PMA-stimulated ACH-2 cells (in words) [3]: no significant alteration in the level of virus expression; effect on virus expression of PMA-stimulated ACH-2 cells (in words) ([3]; listed as 1): no alteration in the level of virus expression; induction of virus expression from ACH-2 cells (in words) [3]: The answer is no; induction of virus expression from ACH-2 cells (in words) ([3]; listed as 1): no increase in the induction of virus expression; EC50 ([4]; U937 cell line): 0.58 µg/mL; EC50 ([4]; U937 cells): 1.5 µM; Therapeutic Index ([4]; U937 cell line, 5760 min): > 34.5; suppression of acute HIV-1 replication in U937 cells (in words) ([4]; U937 cells): can suppress an acute HIV-1 replication; EC50 from U937 cells relative to that for PBMCs ([4]; U937 versus PBMCs): approximately one third
